# Experimental data as given in USRE38090E1, “3′-substituted nucleoside derivative” (Taiho Pharmaceutical Co., Ltd., priority 1994, dated 2003).
# Counter-ions that a name gives are not always drawn.
# Experiments:
# [1] = tested on: Murine Leukemia P388 cells; assay: Survival effect against murine leukemia P388; format: in vivo; settings: P388 implanted i.p. in female CDFI mice
# Protocol: Survival effect against murine leukemia P388:
# Murine Leukemia P388 cells (1×10^6 cells) were implanted intraperitoneally in three female CDFI mice (aged 8 weeks) per group. On the day subsequent to the implantation and the fifth day, test compounds at varied concentrations were administered intraperitoneally to their corresponding groups of mice. Average survival days of each group were determined to find a survival rate (T/C, %) in accordance with the following equation.
# [2] = tested on: Human KB cells; assay: Cytotoxicity, MTT method; format: cell-based; settings: 72 h, 3 days at 37° C., read-out: IC50 (concentration at which the number of cells was decreased by 50%)
# Protocol: Human KB cells were spread in a proportion of 1×10^5 cells/well on a 96-well plate. After a compound according to the present invention was dissolved in purified water, the solution was diluted to various concentrations with an RPMI 1640 medium and then added to each well, thereby conducting culture. After incubating at 37° C. for 3 days in a 5% CO2-incubator, the number of cells was counted by an MTT method.
# The cytotoxicity of each of the compounds tested was expressed by a concentration (IC50) of the compound at which the number of cells was decreased by 50% compared with a control.
# [3] = dose 1 mg/kg i.p. on day 1 and day 5
# [4] = dose 3 mg/kg i.p. on day 1 and day 5
melting point,SMILES,also measured
225 °C (dec.),"C#C[C@@]1(O)[C@@H](CO)O[C@@H](n2cnc3c(=O)[nH]c(N)nc32)[C@@H]1O [Compound 16, 9-(3-C-ethynyl-β-D-ribofuranosyl) guanine]",
211 to 213 °C,"CC#C[C@@]1(O)[C@@H](CO)O[C@@H](n2ccc(=O)[nH]c2=O)[C@@H]1O [Compound 24, 1-(3-C-(1-propynyl)-β-D-ribofuranosyl)uracil]",
,"C#C[C@@]1(O)[C@@H](CO)O[C@@H](n2ccc(=O)[nH]c2=O)[C@@H]1O [Compound 7, 1-(3-C-ethynyl-β-D-ribofuranosyl) uracil]","survival rate T/C (%) [1, 3]: 144%; survival rate T/C (%) [1, 4]: 150%; IC50 [2]: 7.7 ng/mL"
,"CC[C@@]1(O)[C@@H](CO)O[C@@H](n2ccc(=O)[nH]c2=O)[C@@H]1O [Comparative compound 1, 1-(3-C-ethyl-β-D-ribofuranosyl)uracil, reference compound]",IC50 [2]: > 100000 ng/mL
,"C#C[C@@]1(O)[C@@H](CO)O[C@@H](n2ccc(N)nc2=O)[C@@H]1O [Compound 2, 1-(3-C-ethynyl-β-D-ribofuranosyl) cytosine]","survival rate T/C (%) [1, 3]: 211%; survival rate T/C (%) [1, 4]: 206%"
242 °C (dec.),"C#C[C@@]1(O)[C@@H](CO)O[C@@H](n2cc(F)c(N)nc2=O)[C@@H]1O [Compound 4, 1-(3-C-ethynyl-β-D-ribofuranosyl)-5-fluorocytosine]",
162 to 165 °C,"CC#C[C@@]1(O)[C@@H](CO)O[C@@H](n2ccc(N)nc2=O)[C@@H]1O (as salt: salt) [Compound 18, 1-(3-C-(1-propynyl)-β-D-ribofuranosyl)cytosine]",
255 °C (dec.),"C#C[C@@]1(O)[C@@H](CO)O[C@@H](n2c(=O)cc[nH]c2=O)[C@@H]1O [Compound 8, 3-(3-C-ethynyl-β-D-ribofuranosyl) uracil]",
139 to 142 °C,"CCC#C[C@@]1(O)[C@@H](CO)O[C@@H](n2ccc(=O)[nH]c2=O)[C@@H]1O [Compound 26, 1-(3-C-(1-butynyl)-β-D-ribofuranosyl) uracil]",
219 to 222 °C,"C=C[C@@]1(O)[C@@H](CO)O[C@@H](n2ccc(=O)[nH]c2=O)[C@@H]1O [Compound 28, 1-(3-C-ethenyl-β-D-ribofuranosyl) uracil]",
113 to 118 °C,"C#C[C@@]1(O)[C@@H](CO)O[C@@H](n2cc(C)c(=O)[nH]c2=O)[C@@H]1O [Compound 12, 1-(3-C-ethynyl-β-D-ribofuranosyl) thymine]",
194 to 197 °C,"C=C[C@@]1(O)[C@@H](CO)O[C@@H](n2ccc(N)nc2=O)[C@@H]1O [Compound 22, 1-(3-C-ethenyl-β-D-ribofuranosyl) cytosine]",
181 to 184 °C,"CCC#C[C@@]1(O)[C@@H](CO)O[C@@H](n2ccc(N)nc2=O)[C@@H]1O (as salt: salt) [Compound 20, 1-(3-C-(1-butynyl)-β-D-ribofuranosyl) cytosine]",

SMILES,melting point,also measured
"C[Si](C)(C)C#C[C@@]1(O)[C@@H](CO)O[C@@H](n2ccc(=O)[nH]c2=O)[C@@H]1O [Compound 35, 1-(3-C-trimethylsilylethynyl-β-D-ribofuranosyl)uracil]",175 to 177 °C,IC50 [2]: 7.8 ng/mL
